Measured values: patent US20250368667A1, “USP1 INHIBITOR” (Shanghai Qilu Pharmaceutical Research and Development …, priority 2022, published 2025)
Read-outs that look alike come from different tables or passages of the source. Blank lines part the entries; values can stand above or below the molecule they belong to.

Columns and labels:
NCI-H1693 cells = assay: USP1 CTG test: NCI-H1693 cell killing experiment; type: cell-based; details: 6 days, CTG detection, read-out: IC50 (inhibition of NCI-H1693 cells)
Method: Test Example 2 USP1 CTG Test Method
NCI-H1693 cell killing experiment was used to verify the biological activity of USP1i compound in vitro.
NCI-H1693 cells were purchased from ATCC (article number: CRL-5866) and cultured in a cell incubator with 5% CO2 (containing 5% CO2 and 95% air by volume) at 37° C.; 1640 complete medium: comprising 94 wt % RPMI-1640 liquid medium (Gibco, article number: 11875-093), 5 wt % FBS (Gibco, article number: 10099-141), and 1 wt % Pen Strep (Gibco, article number: 15070-063): Fluorescent 384-well plate (Perkin Elmer, article number: 6007279); Trypsin (Gibco, article number: 25200056); CTG Buffer (CellTiter-Glo® 2.0 Cell Viability Assay, Promega, article number: G9241).
[formula] • X: Log10 (compound complex concentration); • Y: corresponding response;
Top and Bottom: corresponding response corresponding to the same unit of Y; and it is noted that: • if X is not the logarithm of dosage, data shall be returned and converted; • if any baseline response is subtracted, the Bottom is set as a constant value of 0.0; and fitting the data to get the IC50 value; • wherein the fitting conditions may be adjusted according to the specific conditions of the data; specifically, Constraint conditions of Bottom, TOP and HillSlope may be adjusted appropriately so as to achieve the curve that is most in line with the actual situation.

[1] = Pharmacokinetic determination in male Beagle dogs; type: in vivo; details: IV 0.2 mg/kg; for AUC(0-t) / clearance: dog, plasma; for clearance: read-out: CL (overall clearance rate) (converted)
Method: Test Example 4 Pharmacokinetic Determination of Compounds of the Present Application in Male Beagle Dogs
Male Beagle dogs were used as test animals. After intravenous injection and oral administration, plasma samples were collected at specific time points. The concentration of the compound in plasma was detected by LC-MS/MS, and the DMPK parameters were calculated to evaluate the pharmacokinetic characteristics of the compound in dog plasma.
Compounds of Table 6 in this application. […] The structural formula of KSQ-4279 is: […]
Male Beagle dogs having a weight of 9 to 13 kg, supplied by Beijing Mars Biotechnology Co., Ltd.
Administration information of the compound in this application: both group IV (intravenous injection group) and group PO (oral administration group) consist of 3 dogs; for group IV, the dosage was 0.2 mg/kg and the administration volume was 0.5 mL/kg; for group PO, the dosage was 3 mg/kg and the administration volume was 3 mL/kg. The administration solvent was 5 vol % DMSO+10 vol % Solutol (Kolliphor HS 15)+85 vol % Saline (physiological saline).
0.5 mL of blood was collected from the head vein in group IV at 0.083, 0.25, 0.5, 1, 2, 4, 8 and 24 hours respectively after administration, and from the head vein in group PO at 0.25, 0.5, 1, 2, 4, 8 and 24 hours respectively after administration. The collected samples were placed in EDTA-K2 test tube; plasma was separated by centrifuging at 2 to 8° C. and 2000 g for 10 minutes, which was then stored at −80° C. until analysis of the samples.
(§1) Dog plasma samples were treated by: • 1) adding 200 μL acetonitrile to 50 μL plasma sample for precipitation, vortex mixing the mixture for 30 seconds, and centrifuging at 4° C. and 3900 rpm for 15 minutes; and • 2) diluting the obtained supernatant with water for 3 folds, and analyzing the concentration of the compounds to be detected by LC/MS/MS.

[2] = tested on: OV0589 Patient-derived Xenograft (PDX); assay: Pharmacodynamic experiment of OV0589 patient-derived xenograft (PDX); type: in vivo, Female BALB/c nude mice; details: oral; for TGI % (tumor growth inhibition rate): Day 36, OV0589 PDX in BALB/c nude mice; for inhibitory effect on tumor growth (FIG. 1): OV0589 PDX
Method: Test Example 5 Pharmacodynamic Experiment of OV0589 Patient-derived Xenograft (PDX)
Female BALB/c nude mice were used as test animals. After oral administration of the compound of this application, the tumor was measured and weighed regularly, and the tumor growth inhibition and tolerance in different administration groups were investigated. After the investigate, plasma and tumor were collected at a specific time point for pharmacokinetic analysis/pharmacodynamics (PK/PD) analysis.
Tumor-bearing mouse tumor (R10P8) was purchased from Sino-American Crown Biotechnology (Beijing) Co., Ltd. Ubiquityl-PCNA (Lys 164) (D5C7P) mAb antibody was purchased from Cell Siganaling company, and the article number is 13439S. PCNA (PC10) antibody was purchased from Santa Cruz company, and the article number is se-56.
Female BALB/c nude mice having a weight of between 21 and 25 g; supplier: Beijing An Kai Yibo Biotechnology Co., Ltd.
Under a temperature of 20° C. to 26° C. and a humidity of 30% to 70% and alternate illumination day and night, when the tumor (R10P8) of the tumor-bearing mice grew to a diameter of about 1 cm (the tumor size reaches 50 to 800 mm^3), the tumor was collected and cut into tumor blocks of about 2 to 3 mm^3, and the tumor block (R10P8) was inoculated subcutaneously into the right anterior scapula of female BALB/c nude mice. The tumor growth in mice was observed regularly. After 35 days of inoculation, when the tumor (R10P8) grew to an average volume of about 150 mm^3 (the range of enrollment was 86.54 mm^3 to […]), according to the tumor size and the weight of mice, StudyDirector™ (version No. 3.1.399.19, supplied by Studylog System, Inc., S. San Francisco, California, USA) was used for random grouping, and the administration was performed for these groups the next day.
Twelve mice were randomly divided into four groups, namely, G1 to G4. Group G1 is the solvent control group, and the solvent is: 10 vol % DMSO+20 vol % Solutol+70 vol % water+5 vol % DMSO+10 vol % Solutol+85 vol % saline. Group G2 was orally administrated with KSQ4279 at a dosage of 100 mg/kg (npk), and the solvent was 5 vol % DMSO+10 vol % Solutol+85 vol % saline.
The tumor growth in mice was observed regularly, and the tumor volume was measured (see FIG. 1), and the change of body weight of mice was observed regularly (see FIG. 2). After 36 days of administration, plasma and tumor were collected for PK/PD analysis.

[3] = target: recombinant human His6-USP1/His6-UAF1 composite protein (Homo sapiens (Human), UniProt O94782); assay: USP1 enzyme activity detection (Ub-Rho fluorescence); type: biochemical; details: USP1/UAF1, Ub-Rho substrate 300 nM, 1 hour pre-incubation; read-out: IC50 (enzymatic inhibition of USP1)
[4] = Pharmacokinetic determination in male CD1 mice; type: in vivo; details: PO 10 mg/kg, plasma
Method: Test Example 3 Pharmacokinetic Determination of the Compound of the Present Application in Male CD1 Mice
Male CD1 mice were used as test animals. After intravenous injection and oral administration, plasma samples were collected at specific time points. The concentration of the compound in plasma was detected by LC-MS/MS, and the parameters of drug metabolism and pharmacokinetics (DMPK) were calculated to evaluate the pharmacokinetic characteristics of the compounds in plasma of mice.
Compounds of Table 5 in this application; the structural formula and preparation method of compound 88 are shown in the above examples. The structural formula of comparative compound 1 is: […]
Male CD1 mice having a weight of between 20 g and 30 g; supplied by Vital River.
Administration of the compound in this application: both group IV (intravenous injection group) and group PO (oral administration group) consist of 3 mice; for group IV, the dosage is 1 mg/kg and the administration volume is 5 mL/kg; and for group PO, the dosage is 10 mg/kg and the administration volume is 10 mL/kg. The administration solvent was 5 vol % DMSO+10 vol % Soltol (Kolliphor HS 15)+85 vol % Saline (physiological saline).
• 0.02 to 0.03 mL of blood was collected from the saphenous vein in group IV at 0.083, 0.25, 0.5, 1, 2, 4, 8 and 24 hours after administration and from the saphenous vein in group PO at 0.25, 0.5, 1, 2, 4, 8 and 24 hours after administration. The collected samples were placed in EDTA-K2 test tube; plasma was separated by centrifuging at 4° C. for […], which was then stored at −80° C. until analysis of the samples.
as §1, with “Mice” for “Dog”, “10” for “50”, “seconds” for “seconds,”, “of” for “of the”

recombinant human His6-USP1/His6-UAF1 composite protein, sequence (O94782 whole entry): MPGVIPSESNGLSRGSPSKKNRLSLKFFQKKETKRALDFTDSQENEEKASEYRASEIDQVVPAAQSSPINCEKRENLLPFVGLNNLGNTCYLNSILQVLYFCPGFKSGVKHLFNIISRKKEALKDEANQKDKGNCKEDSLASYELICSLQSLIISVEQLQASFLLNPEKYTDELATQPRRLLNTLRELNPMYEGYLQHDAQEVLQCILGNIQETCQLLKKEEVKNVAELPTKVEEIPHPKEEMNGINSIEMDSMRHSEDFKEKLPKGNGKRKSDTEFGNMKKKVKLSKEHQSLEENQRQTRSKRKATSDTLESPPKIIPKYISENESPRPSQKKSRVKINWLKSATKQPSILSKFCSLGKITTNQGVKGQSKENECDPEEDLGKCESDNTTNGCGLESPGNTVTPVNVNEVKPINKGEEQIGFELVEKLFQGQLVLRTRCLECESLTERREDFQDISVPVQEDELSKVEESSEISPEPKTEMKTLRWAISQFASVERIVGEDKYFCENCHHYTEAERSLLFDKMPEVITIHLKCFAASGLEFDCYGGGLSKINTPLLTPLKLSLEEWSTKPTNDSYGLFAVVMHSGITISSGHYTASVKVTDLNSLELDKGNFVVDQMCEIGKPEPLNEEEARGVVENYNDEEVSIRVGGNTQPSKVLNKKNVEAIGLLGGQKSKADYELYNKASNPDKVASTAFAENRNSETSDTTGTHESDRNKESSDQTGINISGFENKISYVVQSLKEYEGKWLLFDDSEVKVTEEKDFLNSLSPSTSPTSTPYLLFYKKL
recombinant human His6-USP1/His6-UAF1 composite protein, sequence (Q8TAF3 whole entry partner): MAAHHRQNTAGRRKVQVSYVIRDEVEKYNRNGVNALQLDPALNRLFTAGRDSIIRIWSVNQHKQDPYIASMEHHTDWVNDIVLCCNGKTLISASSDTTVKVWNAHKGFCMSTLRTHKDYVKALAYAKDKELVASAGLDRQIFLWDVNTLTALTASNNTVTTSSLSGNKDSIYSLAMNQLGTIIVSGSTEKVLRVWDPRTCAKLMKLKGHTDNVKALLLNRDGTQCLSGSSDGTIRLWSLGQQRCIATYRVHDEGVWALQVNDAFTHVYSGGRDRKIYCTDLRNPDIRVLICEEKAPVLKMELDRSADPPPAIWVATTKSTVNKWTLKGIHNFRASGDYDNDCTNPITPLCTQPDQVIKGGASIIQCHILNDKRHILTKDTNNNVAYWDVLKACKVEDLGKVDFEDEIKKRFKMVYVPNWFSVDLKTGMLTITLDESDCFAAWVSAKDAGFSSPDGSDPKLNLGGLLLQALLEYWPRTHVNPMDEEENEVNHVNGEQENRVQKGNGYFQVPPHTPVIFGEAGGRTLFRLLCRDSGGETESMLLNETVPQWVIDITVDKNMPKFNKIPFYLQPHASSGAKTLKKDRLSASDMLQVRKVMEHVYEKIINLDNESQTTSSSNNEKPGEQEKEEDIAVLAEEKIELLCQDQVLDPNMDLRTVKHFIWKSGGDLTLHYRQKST

AUClast [1]: 190 ng·h/mL
CL (overall clearance rate) [1]: 15.8 mL/min/kg
SMILES: COc1ncnc(C2CC2)c1-c1ncc2c3ccc(C#N)cc3n(Cc3ccc4c(c3)CCCn3cc(C(F)(F)F)nc3-4)c2n1 [Compound 58]
IC50 (NCI-H1693 cells): 13 nM
TGI % (tumor growth inhibition rate) ([2]; 30 mg/kg): 97.5%
TGI % (tumor growth inhibition rate) ([2]; 100 mg/kg): 107.7%
inhibitory effect on tumor growth (FIG. 1) ([2]; 100 mg/kg): the best inhibitory effect on tumor growth

IC50 [3]: 17.8 nM
SMILES: COc1ncnc(C2CC2)c1-c1ncc2c3ccc(C#N)cc3n(Cc3cc4c(cn3)-c3nc(C(F)(F)F)cn3CCC4)c2n1 [Compound 119]

IC50 [3]: 25.9 nM
SMILES: COc1ncnc(C2CC2)c1-c1ncc2c3ccc(C#N)cc3n(Cc3ccc4c(c3)COCCn3cc(C(F)(F)F)nc3-4)c2n1 [Compound 92]

IC50 [3]: 4.04 nM
SMILES: COc1ncnc(C2CC2)c1-c1ncc2c3ccccc3n(Cc3ccc(-c4nc(C(F)(F)F)cn4C)cc3)c2n1 [Compound 1, 2-(4-cyclopropyl-6-methoxypyrimidin-5-yl)-9-(4-(1-methyl-4-(trifluoromethyl)-1H-imidazol-2-yl)benzyl)-9H-pyrimido[4,5-b]indole]

IC50 [3]: 2.1 nM
SMILES: COc1ncnc(C2CC2)c1-c1ncc2c3ccc(NCCO)nc3n(Cc3ccc4c(c3)CCCn3cc(C(F)(F)F)nc3-4)c2n1 [Compound 97]

Second part, the molecule before the results:

SMILES: COc1ncnc(C2CC2)c1-c1ncc2c(n1)n(Cc1ccc(-c3nc(C(F)(F)F)cn3C)cc1)c1nncn21 [Comparative compound 2, reference compound]
IC50 (NCI-H1693 cells; Homo sapiens, 144 h): 174 nM

SMILES: COc1ncnc(C2CC2)c1-c1ncc2cnn(Cc3ccc(-c4nc(C(F)(F)F)cn4C(C)C)cc3)c2n1 [KSQ-4279, reference compound]
AUC(0-t) [1]: 124 ng·h/mL
clearance [1]: 28.3 mL/min/kg
TGI % (tumor growth inhibition rate) ([2]; 100 mg/kg): 85.7%
inhibitory effect on tumor growth (FIG. 1) ([2]; 100 mg/kg): obviously worse than compound 58 (dosage of 100 mg/kg)

SMILES: COc1ncnc(C2CC2)c1-c1ncc2c3cn(C)nc3n(Cc3ccc(-c4nc(C(F)(F)F)cn4C(C)C)cc3)c2n1 [Compound 88, 6-(4-cyclopropyl-6-methoxypyrimidin-5-yl)-8-(4-(1-isopropyl-4-(trifluoromethyl)-1H-imidazol-2-yl)benzyl)-2-methyl-2,8-dihydropyrazolo[4′,3′: 4,5]pyrrolo[2,3-d]pyrimidine]
IC50 [3]: 4.5 nM
IC50 (NCI-H1693 cells; Homo sapiens, 144 h): 9.2 nM
Blood concentration [4]: 4803
Curve area [4]: 44062
AUC(0-t) [1]: 236 ng·h/mL
clearance [1]: 15 mL/min/kg

SMILES: COc1ncnc(C2CC2)c1-c1ncc2c(n1)n(Cc1ccc(-c3nc(C(F)(F)F)cn3C)cc1)c1nccn21 [Comparative compound 1, reference compound]
IC50 (NCI-H1693 cells; Homo sapiens, 144 h): 53.7 nM
Blood concentration [4]: 2246
Curve area [4]: 6558

SMILES: COc1ncnc(C2CC2)c1-c1ncc2c3cn(C)nc3n(Cc3ccc(-c4nc(C(F)(F)F)cn4C)cc3)c2n1 [Compound 108]
IC50 [3]: 7.52 nM

SMILES: CNc1ccc2c3cnc(-c4c(OC)ncnc4C4CC4)nc3n(Cc3ccc(-c4nc(C(F)(F)F)cn4C)cc3)c2n1 [Compound 74]
IC50 [3]: 4.13 nM

SMILES: COc1ncnc(C2CC2)c1-c1ncc2c3cccc(Cl)c3n(Cc3ccc(-c4nc(C(F)(F)F)cn4C)cc3)c2n1 [Compound 44]
IC50 [3]: 4.22 nM
